We go through 17 molecules from patent US20240383875A1, “Benzimidazole Pyridine Derivatives” (Hoffmann-La Roche Inc., priority 2022, published 2024).

In general, IC50 refers to the concentration that gives 50% inhibition.

What all share (type): biochemical
One test concerns the target SIK1 (Homo sapiens, UniProt P57059). The experiment in a line: Enzymatic activity assay SIK1, RapidFire mass spectrometry (phosphorylation of CHK-peptide). The following applies: RapidFire MS, inhibition of SIK1; read-out: SIK1 RF IC50. In outline: (§1)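 Human SIK1/2/3, 5/0.5/1.5 nM; 12.5 mM HEPES pH 7.0, 10 mM Mg acetate, 0.005% BSA. 30 min cpd pre-inc, + CHK-peptide (10 μM soln) + ATP (100 μM soln), 45 min RT. Formic acid stop; RF-MS phospho ratio; IC50.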

For the next test, the target named is SIK2 (Homo sapiens, UniProt Q9H0K1). Kind of test: Enzymatic activity assay SIK2, RapidFire mass spectrometry (phosphorylation of CHK-peptide). Particulars: RapidFire MS, inhibition of SIK2; read-out: SIK2 RF IC50. Put shortly: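 Read-out is the summed phospho-species fraction of CHK-peptide by RapidFire mass spectrometry, normalized between DMSO and 1 μM YKL-05-099. The reaction used 0.5 nM SIK2, 100 μM ATP and 10 μM peptide solutions in HEPES pH 7.0/10 mM magnesium acetate for 45 min at ambient temperature.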

For a further test, the target named is SIK3 (Homo sapiens, UniProt Q9Y2K2). The experiment in a line: Enzymatic activity assay SIK3, RapidFire mass spectrometry (phosphorylation of CHK-peptide). The following applies: RapidFire MS, inhibition of SIK3; read-out: SIK3 RF IC50. In outline:
as §1

Chain of SIK1 (P57059 whole entry): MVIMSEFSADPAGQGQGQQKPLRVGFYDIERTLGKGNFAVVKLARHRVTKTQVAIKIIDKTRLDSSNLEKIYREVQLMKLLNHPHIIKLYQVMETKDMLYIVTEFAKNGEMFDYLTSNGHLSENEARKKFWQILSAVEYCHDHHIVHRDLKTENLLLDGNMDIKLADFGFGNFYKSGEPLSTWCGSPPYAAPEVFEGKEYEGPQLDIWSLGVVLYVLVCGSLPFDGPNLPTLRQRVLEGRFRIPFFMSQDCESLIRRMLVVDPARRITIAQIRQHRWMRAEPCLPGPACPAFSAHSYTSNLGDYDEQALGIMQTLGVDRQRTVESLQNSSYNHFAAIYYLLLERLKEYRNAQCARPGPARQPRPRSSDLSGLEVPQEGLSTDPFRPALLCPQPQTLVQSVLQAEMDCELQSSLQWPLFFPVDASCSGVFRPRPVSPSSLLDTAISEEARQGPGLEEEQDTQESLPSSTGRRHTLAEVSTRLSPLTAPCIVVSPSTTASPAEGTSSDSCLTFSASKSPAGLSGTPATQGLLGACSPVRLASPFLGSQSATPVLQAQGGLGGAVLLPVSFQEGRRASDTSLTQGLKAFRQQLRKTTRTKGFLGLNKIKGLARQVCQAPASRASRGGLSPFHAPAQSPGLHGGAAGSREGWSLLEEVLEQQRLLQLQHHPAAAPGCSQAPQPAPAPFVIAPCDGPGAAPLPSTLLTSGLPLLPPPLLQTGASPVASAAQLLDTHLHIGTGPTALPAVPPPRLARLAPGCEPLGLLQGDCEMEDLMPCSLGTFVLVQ
Chain of SIK3 (Q9Y2K2 whole entry): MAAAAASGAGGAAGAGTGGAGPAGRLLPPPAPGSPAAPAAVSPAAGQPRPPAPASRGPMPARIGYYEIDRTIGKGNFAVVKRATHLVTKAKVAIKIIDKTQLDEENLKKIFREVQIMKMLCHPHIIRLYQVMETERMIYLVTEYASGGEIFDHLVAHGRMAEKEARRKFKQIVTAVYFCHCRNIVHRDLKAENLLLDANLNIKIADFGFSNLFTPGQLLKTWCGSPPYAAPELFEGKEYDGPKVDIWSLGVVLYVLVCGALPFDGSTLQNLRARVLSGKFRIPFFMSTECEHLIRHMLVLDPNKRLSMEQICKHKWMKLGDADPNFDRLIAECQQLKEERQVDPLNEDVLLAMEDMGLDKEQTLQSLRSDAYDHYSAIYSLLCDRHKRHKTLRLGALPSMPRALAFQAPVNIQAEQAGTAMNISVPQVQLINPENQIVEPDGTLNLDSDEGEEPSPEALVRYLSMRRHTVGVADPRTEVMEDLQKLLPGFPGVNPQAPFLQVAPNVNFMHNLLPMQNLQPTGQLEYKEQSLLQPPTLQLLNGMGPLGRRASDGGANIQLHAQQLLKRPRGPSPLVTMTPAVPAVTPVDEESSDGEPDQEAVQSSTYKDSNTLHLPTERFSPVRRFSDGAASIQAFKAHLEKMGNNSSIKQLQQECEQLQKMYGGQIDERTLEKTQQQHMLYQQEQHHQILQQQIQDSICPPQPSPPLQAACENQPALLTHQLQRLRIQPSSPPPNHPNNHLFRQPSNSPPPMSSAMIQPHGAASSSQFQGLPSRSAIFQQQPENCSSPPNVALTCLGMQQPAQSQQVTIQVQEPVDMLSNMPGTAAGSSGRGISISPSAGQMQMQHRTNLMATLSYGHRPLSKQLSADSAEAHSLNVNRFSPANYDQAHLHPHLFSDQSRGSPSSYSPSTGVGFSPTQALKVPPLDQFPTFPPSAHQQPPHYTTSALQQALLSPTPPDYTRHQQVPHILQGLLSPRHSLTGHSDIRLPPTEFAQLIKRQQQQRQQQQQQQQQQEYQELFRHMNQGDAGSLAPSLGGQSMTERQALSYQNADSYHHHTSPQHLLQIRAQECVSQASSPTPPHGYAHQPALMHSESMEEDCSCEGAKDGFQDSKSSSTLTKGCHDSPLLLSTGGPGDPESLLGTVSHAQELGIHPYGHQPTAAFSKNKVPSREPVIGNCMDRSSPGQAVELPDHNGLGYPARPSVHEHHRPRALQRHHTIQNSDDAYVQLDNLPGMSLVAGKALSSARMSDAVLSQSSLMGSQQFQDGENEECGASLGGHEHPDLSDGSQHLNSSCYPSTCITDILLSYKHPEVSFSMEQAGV
Chain of SIK2 (Q9H0K1 whole entry): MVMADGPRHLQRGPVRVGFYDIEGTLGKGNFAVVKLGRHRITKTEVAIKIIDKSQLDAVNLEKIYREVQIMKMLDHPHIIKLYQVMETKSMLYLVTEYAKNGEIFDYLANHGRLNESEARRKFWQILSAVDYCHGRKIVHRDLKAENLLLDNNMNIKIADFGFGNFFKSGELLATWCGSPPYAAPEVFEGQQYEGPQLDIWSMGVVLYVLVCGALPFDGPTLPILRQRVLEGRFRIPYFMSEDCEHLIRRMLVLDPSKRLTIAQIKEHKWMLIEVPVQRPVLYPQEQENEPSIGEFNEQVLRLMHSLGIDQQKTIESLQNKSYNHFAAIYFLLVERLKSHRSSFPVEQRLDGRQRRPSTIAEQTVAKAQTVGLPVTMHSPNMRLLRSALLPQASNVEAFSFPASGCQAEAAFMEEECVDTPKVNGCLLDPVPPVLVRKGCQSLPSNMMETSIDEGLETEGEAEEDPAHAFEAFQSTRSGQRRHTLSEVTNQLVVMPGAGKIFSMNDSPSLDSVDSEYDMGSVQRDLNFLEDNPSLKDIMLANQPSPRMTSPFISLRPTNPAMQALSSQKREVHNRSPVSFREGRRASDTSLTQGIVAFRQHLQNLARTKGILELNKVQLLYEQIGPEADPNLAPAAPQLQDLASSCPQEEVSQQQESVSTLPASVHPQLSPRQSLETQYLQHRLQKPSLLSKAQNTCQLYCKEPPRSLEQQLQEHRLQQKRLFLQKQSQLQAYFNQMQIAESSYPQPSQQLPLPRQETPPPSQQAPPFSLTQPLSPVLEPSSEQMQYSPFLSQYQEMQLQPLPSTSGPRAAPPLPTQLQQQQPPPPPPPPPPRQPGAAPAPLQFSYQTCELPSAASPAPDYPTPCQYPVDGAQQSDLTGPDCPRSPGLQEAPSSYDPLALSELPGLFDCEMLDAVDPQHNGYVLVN

Take `Cc1cc(C#N)nn1-c1nc(-n2cnc3cc(Nc4ccc(C5CCCN5C5COC5)nn4)ccc32)ccc1C(C)O` (stereo not drawn) [Example 304, 1-[3-(1-hydroxyethyl)-6-[5-[[6-[1-(oxetan-3-yl)pyrrolidin-2-yl]pyridazin-3-yl]amino]benzimidazol-1-yl]-2-pyridyl]-5-methyl-pyrazole-3-carbonitrile]: the values for the IC50 at SIK1, at SIK2 and at SIK3 were 273 nM, 95.4 nM and 37.2 nM, respectively.

Regarding `Cc1cc(C#N)nn1-c1nc(-n2cnc3cc(Nc4ccc(OC(F)F)nn4)ccc32)ccc1C(C)O` (stereo not drawn) [Example 197, 1-[6-[5-[[6-(Difluoromethoxy)pyridazin-3-yl]amino]benzimidazol-1-yl]-3-(1-hydroxyethyl)-2-pyridyl]-5-methyl-pyrazole-3-carbonitrile], the IC50 on SIK1 is 15 nM; at SIK2, 2.3 nM; on SIK3, 0.9 nM.

On to `Cc1ccc(Nc2ccc3c(c2)ncn3-c2ccc(C(C)O)c(N(C)CC3(C#N)CC3)n2)nn1` (stereo not drawn) [Example 173, 1-[[[3-(1-Hydroxyethyl)-6-[5-[(6-methylpyridazin-3-yl)amino]benzimidazol-1-yl]-2-pyridyl]-methyl-amino]methyl]cyclopropanecarbonitrile], for which the IC50 at SIK1 amounted to 3490 nM; on SIK2 it was 198 nM; on SIK3, 53.9 nM.

With `Cc1ccc(Nc2ccc3c(c2)ncn3-c2ccc(C(C)O)c(-n3nc(C(F)F)c(C)c3C)n2)nn1` (stereo not drawn) [Example 369, 1-[2-[3-(difluoromethyl)-4,5-dimethyl-pyrazol-1-yl]-6-[5-[(6-methylpyridazin-3-yl)amino]benzimidazol-1-yl]-3-pyridyl]ethanol], the results for the IC50 at SIK1, on SIK2 and at SIK3 were 1320 nM, 8.2 nM and 4.1 nM, respectively.

For the molecule `Cc1ccc(Nc2ccc3c(c2)ncn3-c2ccc(C(C)O)c(-c3cn(CC(C)(F)F)nc3C)n2)nn1` (stereo not drawn) [Example 281, 1-[2-[1-(2,2-difluoropropyl)-3-methyl-pyrazol-4-yl]-6-[5-[(6-methylpyridazin-3-yl)amino]benzimidazol-1-yl]-3-pyridyl]ethanol], the IC50 at SIK1 was 46 nM; at SIK2, 0.6 nM; on SIK3 it was 1.2 nM.

Consider `Cc1cc(C#N)nn1-c1nc(-n2cnc3cc(-c4cnc(N5CCCC5=O)o4)ccc32)ccc1C(C)O` (stereo not drawn) [Example 392, 1-[3-(1-hydroxyethyl)-6-[5-[2-(2-oxopyrrolidin-1-yl)oxazol-5-yl]benzimidazol-1-yl]-2-pyridyl]-5-methyl-pyrazole-3-carbonitrile], for which the figures for the half-maximal inhibitory concentration (IC50) on SIK1, on SIK2 and at SIK3 were 10 nM, 2 nM and 4.5 nM, respectively.

With `Cc1ccc(Nc2ccc3c(c2)ncn3-c2ccc(C(C)O)c(-c3ccn(CC(F)(F)F)c(=O)c3F)n2)nn1` (stereo not drawn) [Example 386, 3-fluoro-4-[3-(1-hydroxyethyl)-6-[5-[(6-methylpyridazin-3-yl)amino]benzimidazol-1-yl]-2-pyridyl]-1-(2,2,2-trifluoroethyl)pyridin-2-one], the figures for the IC50 on SIK1, at SIK2 and on SIK3 were 69 nM, 1.2 nM and 1.2 nM, respectively.

As to `COc1ccc(Nc2ccc3c(c2)ncn3-c2ccc(C(C)O)c(-n3nc(C#N)cc3C)n2)nn1` (stereo not drawn) [Example 88, 1-[3-(1-Hydroxyethyl)-6-[5-[(6-methoxypyridazin-3-yl)amino]benzimidazol-1-yl]-2-pyridyl]-5-methyl-pyrazole-3-carbonitrile], the IC50 was found to be 62 nM at SIK1, 2.2 nM on SIK2 and 0.8 nM on SIK3.

For `Cc1ccc(Nc2ccc3c(c2)ncn3-c2ccc(C(C)O)c(-c3cn(C4CC4(F)F)nc3C)n2)nn1` (stereo not drawn) [Example 277, 1-[2-[1-(2,2-difluorocyclopropyl)-3-methyl-pyrazol-4-yl]-6-[5-[(6-methylpyridazin-3-yl)amino]benzimidazol-1-yl]-3-pyridyl]ethanol], the IC50 on SIK1 turned out to be 521 nM; on SIK2 it was 2 nM; on SIK3, 1.8 nM.

Turning to `Cc1ccc(Nc2ccc3c(c2)ncn3-c2ccc(C(C)O)c(-c3cn(CC(F)F)nc3C)n2)nn1` (stereo not drawn) [Example 313, 1-[2-[1-(2,2-difluoroethyl)-3-methyl-pyrazol-4-yl]-6-[5-[(6-methylpyridazin-3-yl)amino]benzimidazol-1-yl]-3-pyridyl]ethanol], the values for the IC50 at SIK1, on SIK2 and on SIK3 were 138 nM, 1.1 nM and 1.4 nM, respectively.

For the molecule `Cc1ccc(Nc2ccc3c(c2)ncn3-c2ccc(C(C)O)c(-c3cccc4[nH]nnc34)n2)nn1` (stereo not drawn) [Example 194, 1-[2-(1H-Benzotriazol-4-yl)-6-[5-[(6-methylpyridazin-3-yl)amino]benzimidazol-1-yl]-3-pyridyl]ethanol], the IC50 at SIK1 turned out to be 3330 nM; on SIK2, 288 nM; on SIK3, 29.5 nM.

On to `CCc1cc(-c2nc(-n3cnc4cc(Nc5ccc(C)nn5)ccc43)ccc2C(C)O)c(C)cn1` (stereo not drawn) [Example 283, 1-[2-(2-ethyl-5-methyl-4-pyridyl)-6-[5-[(6-methylpyridazin-3-yl)amino]benzimidazol-1-yl]-3-pyridyl]ethanol], for which the IC50 at SIK1 was 1050 nM; at SIK2, 21.5 nM; at SIK3, 7.9 nM.

`Cc1ccc(Nc2cc3ncn(-c4ccc(C(C)O)c(-n5nc(C#N)cc5C)n4)c3cc2F)nn1` (stereo not drawn) [Example 93, 1-[6-[6-Fluoro-5-[(6-methylpyridazin-3-yl)amino]benzimidazol-1-yl]-3-(1-hydroxyethyl)-2-pyridyl]-5-methyl-pyrazole-3-carbonitrile]: the results for the IC50 at SIK1, at SIK2 and on SIK3 were 97 nM, 0.5 nM and 0.6 nM, respectively.

As for `Cc1ccc(Nc2ccc3c(c2)ncn3-c2ccc(C(C)O)c(-c3cc(F)cnc3Cl)n2)nn1` (stereo not drawn) [Example 174, 1-[2-(2-Chloro-5-fluoro-3-pyridyl)-6-[5-[(6-methylpyridazin-3-yl)amino]benzimidazol-1-yl]-3-pyridyl]ethanol; formic acid], the IC50 came to 12100 nM on SIK1, 151 nM on SIK2 and 29 nM on SIK3.

Consider `CCn1cc(-c2nc(-n3cnc4cc(Nc5ccc(C)nn5)ccc43)ccc2C(C)O)c(C)n1` (stereo not drawn) [Example 264, 1-[2-(1-Ethyl-3-methyl-pyrazol-4-yl)-6-[5-[(6-methylpyridazin-3-yl)amino]benzimidazol-1-yl]-3-pyridyl]ethanol; formic acid], for which the IC50 at SIK1 worked out at 851 nM; at SIK2 it was 2.6 nM; on SIK3, 1.5 nM.

Consider `Cc1cc(C#N)nn1-c1nc(-n2cnc3ccc(N4CC[C@H]5CNC(=O)[C@H]54)cc32)ccc1C(C)O` (stereo partly drawn) [Example 343, 1-[6-[6-[(3aS,6aS)-6-oxo-2,3,3a,4,5,6a-hexahydropyrrolo[2,3-c]pyrrol-1-yl]benzimidazol-1-yl]-3-(1-hydroxyethyl)-2-pyridyl]-5-methyl-pyrazole-3-carbonitrile], for which the IC50 at SIK1 is 5 nM; on SIK2, 22 nM; at SIK3, 63 nM.

On to `Cc1cc(C#N)nn1-c1nc(-n2cnc3cc(NC(=O)C4CC4)ccc32)ccc1C(C)O` (stereo not drawn) [Example 327, N-[1-[6-(3-cyano-5-methyl-pyrazol-1-yl)-5-(1-hydroxyethyl)-2-pyridyl]benzimidazol-5-yl]cyclopropanecarboxamide], for which the IC50 on SIK1 stood at 40 nM; at SIK2 it was 7.2 nM; at SIK3, 4.1 nM.
